Measured values: paper PMC10849753, “Antiproliferative activity of platinum(II) and copper(II) complexes containing novel biquinoxaline ligands” (Metallomics: Integrated Biometal Science, 2024)

System: U87 cells
Assay: Matrigel invasion analysis
Format: cell-based, human
Conditions: U87, 6.25 and 12.5 μM, 24 h, vs negative control
Description: The analysis was completed with U87 and HeLa cell lines to assess the metastatic potential of tumor cells using transwell inserts with an 8 μm pore size polycarbonate membrane (Corning Costar, Cambridge, MA, USA) coated with 1/5 of Matrigel (Beckton Dickinson, Bedford, MA, USA) and air-dried at room temperature. After seeding the U87 and HeLa cell lines (3 × 10^5cells/insert), the complex concentrations were selected as 6.25 or 12.5 μM and incubated at 37°C in a humidified incubator with 5% CO2 for 24 h. The cell monolayers in the transwell inserts were fixed with ice-cold methanol and stained with 0.05% crystal violet for the analysis. The invasion of the cells to the basolateral side of the inserts was investigated using a light microscope with 40× magnification.

SMILES: [Cl][Cu][Cl].c1ccc(-c2nc3ccc(-c4ccc5nc(-c6ccccn6)c(-c6ccccn6)nc5c4)cc3nc2-c2ccccn2)nc1 [Cu(tpbq)Cl2]
- anti-invasive effect: did not have any anti-invasive effect
